Values joined by “and” are separate entries in the source; they are usually repeats but may differ in a detail not shown here. Identical values can stand only once. “Also recorded” adds a separate entry of the source. Counter-ions that a name gives are not always drawn. Like-named read-outs stand apart in the source and are kept apart here.
Columns and labels:
Ramos tumor xenografts = assay: In vivo anti-tumor activity on Ramos tumor xenografts; parameters: species or system BALB/c nude mice; conditions: Q7D×3, i.v. (title: Q1D×1; i.v.)
[1] = for % Deaths / D/T, # Deaths/Total Treated: Daudi or Ramos bearing mice
Daudi tumor xenografts = assay: In vivo anti-tumor activity on Daudi tumor xenografts; conditions: for anti-tumor activity: Q5D×2 (days 20 and 25), 4.1 mg/kg/inj ADM and/or 630 mg/kg/inj 5E9
EGF receptor = molecular target: T1, EGF receptor (Homo sapiens, UniProt P00533); assay: 125I-EGF competition radioisotope assay on A431 cells; type: binding; conditions: 4° C., 4 h
T1 construct: endogenous in cells; host or cells: A431 cells
Procedure: The retention of EGF binding activity after chemical coupling of ADM-HZN to EGF was determined by a competition radioisotope assay, using the A431 cell line. This cell line was derived from a […] and in our laboratory can bind between 1-4×10^7 molecules of EGF (results not shown). Cells, diluted in RPMI 1640 growth medium containing 10% FCS, were plated in 96-well microtiter plates (5×10^5 cells/well) 24 h before the assay. On the day of the assay, the A431 cells, which grow as an adherent cell population, were washed in DMEM containing 2% bovine serum albumin (hereafter referred to as buffer A). Cells (in triplicate) were incubated with 0.05 ml of 2-fold serially diluted EGF or EGF-ADM, and 0.05 ml of ^125 I-labeled EGF (50 ng/ml) diluted in buffer A (final volume: 0.1 ml/well). The cells were incubated at 4° C. for 4 h, and then washed 3 times with buffer A. The cells were removed from the 96-well plastic plates by solubilization with 1.0M NaOH, and the amount of cell-bound ^125 I-EGF was determined by counting on a LKB model 1272 gamma counter.

[2] = N=1, Q1D×1, i.v., ADM 14 mg/kg/inj, cumulative 14
[3] = N=1, Q2D×2, i.v., ADM 8 mg/kg/inj, cumulative 16
[4] = N=1, Q2D×2, i.v., ADM 10 mg/kg/inj, cumulative 20
[5] = N=1, Q2D×2, i.v., ADM 15 mg/kg/inj, cumulative 30
[6] = N=1, Q3D×2, i.v., ADM 12 mg/kg/inj, cumulative 24
[7] = N=1, Q3D×2, i.v., ADM 14 mg/kg/inj, cumulative 28
[8] = N=1, Q3D×2, i.v., ADM 16 mg/kg/inj, cumulative 32
[9] = N=1, Q4D×2, i.v., ADM 10 mg/kg/inj, cumulative 20
[10] = N=1, Q4D×2, i.v., ADM 14 mg/kg/inj, cumulative 28
[11] = N=1, Q4D×3, i.p., ADM 5 mg/kg/inj, cumulative 15
[12] = N=1, Q5D×2, i.p., ADM 4.1 mg/kg/inj, cumulative 8.2
[13] = N=1, Q5D×2, i.p., ADM 5.5 mg/kg/inj, cumulative 11
[14] = N=1, Q7D×3, i.v., ADM 12 mg/kg/inj, cumulative 36
[15] = N=1, Q8D×2, i.p., ADM 5 mg/kg/inj, cumulative 10
[16] = N=1, Q8D×2, i.p., ADM 10 mg/kg/inj, cumulative 20
[17] = N=1, Q8D×2, i.p., ADM 13 mg/kg/inj, cumulative 26
[18] = N=2, Q2D×2, i.v., ADM 12 mg/kg/inj, cumulative 24
[19] = N=2, Q4D×2, i.v., ADM 12 mg/kg/inj, cumulative 24
[20] = N=3, Q1D×1, i.v., ADM 16 mg/kg/inj, cumulative 16
[21] = N=3, Q7D×3, i.v., ADM 10 mg/kg/inj, cumulative 30
[22] = N=3, Q7D×3, i.v., ADM 11 mg/kg/inj, cumulative 33
[23] = N=4 experiments, Q1D×1, i.v., ADM 18 mg/kg/inj, cumulative 18
[24] = Daudi-bearing mice, 5 mg/kg/inj, cum 10, Q8D×2, i.p.
[25] = Daudi-bearing mice, 5 mg/kg/inj, cum 15, Q4D×3, i.p.
[26] = Daudi-bearing mice, 5 mg/kg/inj, cum 15, Q7D×3, i.p.
[27] = Daudi-bearing mice, 5 mg/kg/inj, cum 15, Q7D×3, i.v.
[28] = Daudi-bearing mice, 10 mg/kg/inj, cum 30, Q7D×3, i.p.
[29] = Daudi-bearing mice, 11 mg/kg/inj, cum 33, Q7D×3, i.v., hydrochloride, 11 mg/kg
[30] = Daudi-bearing mice, 12 mg/kg/inj, cum 12, Q1D×1, i.v.
[31] = Daudi-bearing mice, 13 mg/kg/inj, cum 26, Q8D×2, i.p.
[32] = Daudi-bearing mice, 15 mg/kg/inj, cum 15, Q1D×1, i.v.
[33] = Daudi-bearing mice, 18 mg/kg/inj, cum 18, Q1D×1, i.v.
[34] = Daudi-bearing mice, 20 mg/kg/inj, cum 20, Q1D×1, i.v.
[35] = Ramos-bearing mice, 16 mg/kg/inj, Q7D×3, i.v. (title: Q1D×1; i.v.)
[36] = Ramos-bearing mice, 18 mg/kg/inj, Q7D×3, i.v. (title: Q1D×1; i.v.)
[37] = 4.1 mg/kg/inj, cum 8.2, Q5D×2, i.p.
[38] = 4.5 mg/kg/inj, cum 9, Q5D×2, i.p.
[39] = 5 mg/kg/inj, cum 15, Q7D×3, i.v.
[40] = 5.5 mg/kg/inj, cum 11, Q5D×2, i.p.
[41] = 9 mg/kg/inj, cum 27, Q7D×3, i.v.
[42] = 11 mg/kg/inj, cum 33, Q7D×3, i.v., hydrochloride
[43] = 12 mg/kg/inj, cum 36, Q7D×3, i.v., hydrochloride

## COc1cccc2c1C(=O)c1c(O)c3c(c(O)c1C2=O)C[C@@](O)(C(=O)CO)C[C@@H]3O[C@H]1C[C@H](N)[C@H](O)[C@H](C)O1 [ADM-HCl, adriamycin hydrochloride]
Ramos tumor xenografts; 16 mg/kg/inj
  CR, complete regressions: 0
  Cures: 0
  T-C, delay to reach 3000 mm^3 vs untreated controls: 5 days
  TDD, tumor doubling delay: 0.3
Ramos tumor xenografts; 18 mg/kg/inj
  CR, complete regressions: 0
  Cures: 0
  T-C, delay to reach 3000 mm^3 vs untreated controls: 8 days
  TDD, tumor doubling delay: 0.5
[1]; [2]
  % Deaths: 0%
  D/T, # Deaths/Total Treated: 0/8
[1]; [3]
  % Deaths: 20%
  D/T, # Deaths/Total Treated: 1/5
[1]; [4]
  % Deaths: 60%
  D/T, # Deaths/Total Treated: 3/5
[1]; [5]
  % Deaths: 100%
  D/T, # Deaths/Total Treated: 7/7
[1]; [6]
  % Deaths: 75%
  D/T, # Deaths/Total Treated: 6/8
[1]; [7]
  % Deaths: 88%
  D/T, # Deaths/Total Treated: 7/8
[1]; [8]
  % Deaths: 100%
  D/T, # Deaths/Total Treated: 8/8
[1]; [9]
  % Deaths: 25%
  D/T, # Deaths/Total Treated: 2/8
[1]; [10]
  % Deaths: 86%
  D/T, # Deaths/Total Treated: 6/7
[1]; [11]
  % Deaths: 67%
  D/T, # Deaths/Total Treated: 6/9
[1]; [12]
  % Deaths: 20%
  D/T, # Deaths/Total Treated: 1/5
[1]; [13]
  % Deaths: 0%
  D/T, # Deaths/Total Treated: 0/8
[1]; [14]
  % Deaths: 50%
  D/T, # Deaths/Total Treated: 4/8
[1]; [15]
  % Deaths: 38%
  D/T, # Deaths/Total Treated: 3/8
[1]; [16]
  % Deaths: 100%
  D/T, # Deaths/Total Treated: 8/8
[1]; [17]
  % Deaths: 100%
  D/T, # Deaths/Total Treated: 7/7
[1]; [18]
  % Deaths: 83%
  D/T, # Deaths/Total Treated: 10/12
[1]; [19]
  % Deaths: 47%
  D/T, # Deaths/Total Treated: 7/15
[1]; [20]
  % Deaths: 10%
  D/T, # Deaths/Total Treated: 3/31
[1]; [21]
  % Deaths: 0%
  D/T, # Deaths/Total Treated: 0/24
[1]; [22]
  % Deaths: 15%
  D/T, # Deaths/Total Treated: 4/26
[1]; [23]
  % Deaths: 44%
  D/T, # Deaths/Total Treated: 14/32
[1]; Daudi-bearing mice, 4.1 mg/kg/inj, cum 8.2, Q5D×2, i.p.
  D/T, deaths/total animals: 1/5
[1]; Daudi-bearing mice, 4.5 mg/kg/inj, cum 9, Q5D×2, i.p., hydrochloride, 4.5 mg/kg
  D/T, deaths/total animals: 0/5 and 0/8
[1]; [24]
  D/T, deaths/total animals: 3/8
  Toxicity (%), deaths: 37%
[1]; [25]
  D/T, deaths/total animals: 6/9
  Toxicity (%), deaths: 67%
[1]; [26]
  D/T, deaths/total animals: 6/9
  Toxicity (%), deaths: 67%
[1]; [27]
  D/T, deaths/total animals: 1/9
  Toxicity (%), deaths: 11%
[1]; Daudi-bearing mice, 5.5 mg/kg/inj, cum 11, Q5D×2, i.p.
  D/T, deaths/total animals: 0/8
[1]; Daudi-bearing mice, 9 mg/kg/inj, cum 27, Q7D×3, i.v.
  D/T, deaths/total animals: 0/10
[1]; Daudi-bearing mice, 10 mg/kg/inj, cum 20, Q8D×2, i.p.
  D/T, deaths/total animals: 8/8
[1]; [28]
  D/T, deaths/total animals: 8/8
  Toxicity (%), deaths: 100%
[1]; Daudi-bearing mice, 10 mg/kg/inj, cum 30, Q7D×3, i.v., hydrochloride, 10 mg/kg
  D/T, deaths/total animals: 0/8 and 0/7
[1]; [29]
  D/T, deaths/total animals: 2/8 and 2/10 and 0/8
  Toxicity (%), deaths: 25% and 20%
[1]; [30]
  D/T, deaths/total animals: 7/7
  Toxicity (%), deaths: 100%
[1]; Daudi-bearing mice, 12 mg/kg/inj, cum 36, Q7D×3, i.v.
  Toxicity (%), deaths: 50%
[1]; Daudi-bearing mice, 12 mg/kg/inj, cum 36, Q7D×3, i.v., hydrochloride, 12 mg/kg
  D/T, deaths/total animals: 4/8 and 2/8
[1]; [31]
  D/T, deaths/total animals: 7/7
  Toxicity (%), deaths: 100%
[1]; [32]
  D/T, deaths/total animals: 7/7
  Toxicity (%), deaths: 100%
[1]; [33]
  D/T, deaths/total animals: 6/8
  Toxicity (%), deaths: 75%
[1]; [34]
  D/T, deaths/total animals: 7/7
  Toxicity (%), deaths: 100%
[1]; Q7D×3, i.v.
  MTD (maximum tolerated dose): 11 mg/kg/inj
[1]; [35]
  D/T, deaths/total animals: 1/8
  Toxicity (%), deaths (lethality): 12%
[1]; [36]
  D/T, deaths/total animals: 2/8
  Toxicity (%), deaths (lethality): 25%
[1]; i.p.
  MTD (maximum tolerated dose): 4-5 mg/kg/inj
Daudi tumor xenografts; [37]
  CR, complete regressions: 0
  Cures: 0
  T-C, delay to reach 3000 mm^3 vs untreated controls: 0 days
  TDD, tumor doubling delay: 0
Daudi tumor xenografts; [38]
  CR, complete regressions: 0
  Cures: 0
  T-C, delay to reach 3000 mm^3 vs untreated controls: 2.2 days
Daudi tumor xenografts; [39]
  CR, complete regressions: 2
  Cures: 0
  T-C, delay to reach 3000 mm^3 vs untreated controls: 6.2 days
  TDD, tumor doubling delay: 0.18
Daudi tumor xenografts; [40]
  CR, complete regressions: 0
  Cures: 0
  T-C, delay to reach 3000 mm^3 vs untreated controls: 2.2 days
  TDD, tumor doubling delay: .1
Daudi tumor xenografts; [41]
  CR, complete regressions: 0
  Cures: 1
  T-C, delay to reach 3000 mm^3 vs untreated controls: 23 days
  TDD, tumor doubling delay: 0.9
Daudi tumor xenografts; 10 mg/kg/inj, cum 30, Q7D×3, i.v.
  CR, complete regressions: 0
Daudi tumor xenografts; 10 mg/kg/inj, cum 30, Q7D×3, i.v., hydrochloride
  TDD, tumor doubling delay: 0.7 and 0.8
Daudi tumor xenografts; [42]
  T-C, delay to reach 3000 mm^3 vs untreated controls: 28 days and > 42 days and 21 days
  TDD, tumor doubling delay: 1.1 and > 1.3 and 0.7 and > 1.1
Daudi tumor xenografts; 12 mg/kg/inj, cum 36, Q7D×3, i.v.
  Cures: 3
Daudi tumor xenografts; [43]
  T-C, delay to reach 3000 mm^3 vs untreated controls: > 62 days and > 33 days
  TDD, tumor doubling delay: > 2.0 and > 1.5
Daudi tumor xenografts; i.p., hydrochloride
  anti-tumor activity: no anti-tumor activity
Daudi tumor xenografts; i.p., listed as ADM, hydrochloride
  anti-tumor activity: inactive
Daudi tumor xenografts; Q7D×3, i.v., 9, 10 or 11 mg/kg/injection
  growth inhibition of Daudi tumor xenografts: significantly inhibited in a dose dependent fashion
Daudi tumor xenografts; i.p. route, MTD
  anti-tumor activity at MTD: inactive

## EGF-ADM: SPDP-thiolated murine EGF reacted with ADM-HZN, 13-keto acylhydrazone linker
EGF receptor
  inhibition of 125I-EGF binding, binding activity vs unconjugated EGF: only a small loss in binding activity; also recorded: retention of binding activity

— patent US5122368A, “Anthracycline conjugates having a novel linker and methods for their production” (Bristol-Myers Squibb Company, priority 1989, dated 1992)
